This data set deals with T1, Recombinant human IL-1β (Homo sapiens, UniProt P01584).
T1 construct: purchased BioLegend 579404
In words: IL-6 assay in MRC5 cells: inhibition of IL-1β induced IL-6 secretion (AlphaLISA). In kind it is cell-based. In short, it runs like this: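 IL-1β at 2×EC80 in seeding medium (EMEM, 0.025% BSA) preincubated 1 h at ambient temperature with compound, then 3000 MRC5 cells/well added and incubated overnight at 37 °C, 5% CO2. IL-6 in conditioned medium quantified by AlphaLISA; IC50 from 4-parameter logistic fit.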
For orientation: Bead proximity is the source of the signal in Alpha formats.

Where [1] appears, read: inhibition of IL-1β induced IL-6 secretion in MRC5 cells, read-out: MRC5 IC50.

The term IC50 denotes the point on the concentration scale where inhibition reaches its midpoint.

The structures appear in SMILES notation. Read-outs that look alike come from different tables or passages of the source. *1 amine or outer side, *2 acyl side, *3 side chain or, on linkers, in order; H or OH if unused. Where a SMILES comes first, the peptide text is derived from it. [ ]: non-standard residue; d: D form. Trp(4-Cl)(βS-Me) = C[C@@H](c1c[nH]c2cccc(Cl)c12)[C@H](N)C(=O)O; Trp(βS-Me,4-F) = C[C@@H](c1c[nH]c2cccc(F)c12)[C@H](N)C(=O)O; Bip(4'-COOH) = N[C@@H](Cc1ccc(-c2ccc(C(=O)O)cc2)cc1)C(=O)O; Phe(4-COOH) = N[C@@H](Cc1ccc(C(=O)O)cc1)C(=O)O; h3Pal(5-CN) = N#Cc1cncc(CC[C@H](N)C(=O)O)c1; Pro(4R-NH2) = N[C@H]1CN[C@H](C(=O)O)C1; X7 = O=C([C@H](CCN1CCOCC1)N[*:1])[*:2]; 1Nal = N[C@@H](Cc1cccc2ccccc12)C(=O)O; AEF = NCCOc1ccc(C[C@H](N)C(=O)O)cc1; hTyr = N[C@@H](CCc1ccc(O)cc1)C(=O)O; hPhe = N[C@@H](CCc1ccccc1)C(=O)O; 4Pal = N[C@@H](Cc1ccncc1)C(=O)O; dDab = NCC[C@@H](N)C(=O)O; dNMeA = CN[C@H](C)C(=O)O; Dab = NCC[C@H](N)C(=O)O; Nva = CCC[C@H](N)C(=O)O

T1 sequence (P01584 117-269): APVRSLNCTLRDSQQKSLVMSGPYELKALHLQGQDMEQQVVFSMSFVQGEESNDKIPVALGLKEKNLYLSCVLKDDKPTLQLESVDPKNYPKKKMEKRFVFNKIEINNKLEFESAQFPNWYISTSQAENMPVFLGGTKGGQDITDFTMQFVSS

As to `COC[C@@H]1NC(=O)[C@H](Cc2c[nH]c3ccccc23)NC(=O)[C@H](Cc2ccc(-c3ccc(C(=O)O)cc3)cc2)NC(=O)CNC(=O)[C@@H](C)N(C)C(=O)[C@H](CC(=O)O)NC(=O)[C@H]([C@@H](C)c2c[nH]c3cccc(Cl)c23)NC(=O)[C@@H]2C[C@@H](N)CN2C(=O)CNC(=O)[C@H](Cc2ccc(C(=O)O)cc2)NC(=O)[C@H](Cc2c[nH]c3ccccc23)NC(=O)[C@H](Cc2ccc(OCCNC(C)=O)cc2)NC(=O)[C@H](CCc2ccccc2)NC(=O)[C@@H](C)NC1=O` [Example 152] (cyclo([AEF](Ac)W[Phe(4-COOH)]G[Pro(4R-NH2)][Trp(4-Cl)(βS-Me)]D[dNMeA]G[Bip(4'-COOH)]WS(Me)[dA][hPhe])), under setting [1], the IC50 amounted to 0.06 nM. Same read-out and setting: next, `COC[C@@H]1NC(=O)[C@H](Cc2c[nH]c3ccccc23)NC(=O)[C@H](Cc2ccc(-c3ccc(C(=O)O)cc3)cc2)NC(=O)CNC(=O)[C@@H](C)N(C)C(=O)[C@H](CC(=O)O)NC(=O)[C@H]([C@@H](C)c2c[nH]c3cccc(Cl)c23)NC(=O)[C@@H]2C[C@@H](N)CN2C(=O)CNC(=O)[C@H](Cc2ccc(C(=O)O)cc2)NC(=O)[C@H](Cc2c[nH]c3ccccc23)NC(=O)[C@H](Cc2ccc(OCCNC(C)=O)cc2)NC(=O)[C@H](CCc2ccc(O)cc2)NC(=O)[C@@H](C)NC1=O` [Example 153] (cyclo([AEF](Ac)W[Phe(4-COOH)]G[Pro(4R-NH2)][Trp(4-Cl)(βS-Me)]D[dNMeA]G[Bip(4'-COOH)]WS(Me)[dA][hTyr])): 0.088 nM. The same measure, in the same setting: next, `CC(=O)NCCOc1ccc(C[C@@H]2NC(=O)[C@H](CCc3ccc(O)cc3)NC(=O)[C@@H](C)NC(=O)[C@H](CCN)NC(=O)[C@H](Cc3cccc4ccccc34)NC(=O)[C@H](Cc3ccc(-c4ccc(C(=O)O)cc4)cc3)NC(=O)CNC(=O)[C@@H](C)N(C)C(=O)[C@H](CC(=O)O)NC(=O)[C@H]([C@@H](C)c3c[nH]c4cccc(F)c34)NC(=O)[C@@H]3C[C@@H](N)CN3C(=O)CNC(=O)[C@H](Cc3ccc(C(=O)O)cc3)NC(=O)[C@H](Cc3c[nH]c4ccccc34)NC2=O)cc1` [Example 154] (cyclo([AEF](Ac)W[Phe(4-COOH)]G[Pro(4R-NH2)][Trp(βS-Me,4-F)]D[dNMeA]G[Bip(4'-COOH)][1Nal][Dab][dA][hTyr])): 0.196 nM; `CC(=O)NCCOc1ccc(C[C@@H]2NC(=O)[C@H](CCc3ccc(O)cc3)NC(=O)[C@@H](C)NC(=O)[C@H](CO)NC(=O)[C@H](Cc3cccc4ccccc34)NC(=O)[C@H](Cc3ccc(-c4ccc(C(=O)O)cc4)cc3)NC(=O)CNC(=O)[C@@H](C)N(C)C(=O)[C@H](CC(=O)O)NC(=O)[C@H]([C@@H](C)c3c[nH]c4cccc(F)c34)NC(=O)[C@@H]3C[C@@H](N)CN3C(=O)CNC(=O)[C@H](Cc3ccc(C(=O)O)cc3)NC(=O)[C@H](Cc3c[nH]c4ccccc34)NC2=O)cc1` [Example 155] (cyclo([AEF](Ac)W[Phe(4-COOH)]G[Pro(4R-NH2)][Trp(βS-Me,4-F)]D[dNMeA]G[Bip(4'-COOH)][1Nal]S[dA][hTyr])): 0.22 nM. For `CC(=O)NCCOc1ccc(C[C@@H]2NC(=O)[C@H](CCc3ccc(O)cc3)NC(=O)[C@@H](C)NC(=O)[C@H](CC(C)C)NC(=O)[C@H](Cc3ccncc3)NC(=O)[C@H](Cc3ccc(-c4ccc(C(=O)O)cc4)cc3)NC(=O)CNC(=O)[C@@H](C)N(C)C(=O)[C@H](CC(=O)O)NC(=O)[C@H]([C@@H](C)c3c[nH]c4cccc(F)c34)NC(=O)[C@@H]3C[C@@H](N)CN3C(=O)CNC(=O)[C@H](Cc3ccc(C(=O)O)cc3)NC(=O)[C@H](Cc3c[nH]c4ccccc34)NC2=O)cc1` [Example 156] (cyclo([AEF](Ac)W[Phe(4-COOH)]G[Pro(4R-NH2)][Trp(βS-Me,4-F)]D[dNMeA]G[Bip(4'-COOH)][4Pal]L[dA][hTyr])), under setting [1], the IC50 is 0.948 nM.

Take `CCC[C@@H]1NC(=O)[C@H](Cc2ccncc2)NC(=O)[C@H](Cc2ccc(-c3ccc(C(=O)O)cc3)cc2)NC(=O)CNC(=O)[C@@H](C)N(C)C(=O)[C@H](CC(=O)O)NC(=O)[C@H]([C@@H](C)c2c[nH]c3cccc(F)c23)NC(=O)[C@@H]2C[C@@H](N)CN2C(=O)CNC(=O)[C@H](Cc2ccc(C(=O)O)cc2)NC(=O)[C@H](Cc2c[nH]c3ccccc23)NC(=O)[C@H](Cc2ccc(OCCNC(C)=O)cc2)NC(=O)[C@H](CCc2ccc(O)cc2)NC(=O)[C@@H](C)NC1=O` [Example 157] (cyclo([AEF](Ac)W[Phe(4-COOH)]G[Pro(4R-NH2)][Trp(βS-Me,4-F)]D[dNMeA]G[Bip(4'-COOH)][4Pal][Nva][dA][hTyr])): the half-inhibitory concentration (IC50) under setting [1] came out at 0.403 nM. Same read-out and setting: next, `CC(=O)NCCOc1ccc(C[C@@H]2NC(=O)[C@H](CCc3cncc(C#N)c3)NC(=O)[C@@H](C)NC(=O)[C@H](CC(C)C)NC(=O)[C@H](CCCCN)NC(=O)[C@H](Cc3ccc(-c4ccc(C(=O)O)cc4)cc3)NC(=O)CNC(=O)[C@@H](C)N(C)C(=O)[C@H](CC(=O)O)NC(=O)[C@H]([C@@H](C)c3c[nH]c4cccc(F)c34)NC(=O)[C@@H]3C[C@@H](N)CN3C(=O)CNC(=O)[C@H](Cc3ccc(C(=O)O)cc3)NC(=O)[C@H](Cc3c[nH]c4ccccc34)NC2=O)cc1` [Example 158] (cyclo([AEF](Ac)W[Phe(4-COOH)]G[Pro(4R-NH2)][Trp(βS-Me,4-F)]D[dNMeA]G[Bip(4'-COOH)]KL[dA][h3Pal(5-CN)])): 0.0257 nM; `CC(=O)NCCOc1ccc(C[C@@H]2NC(=O)[C@H](CCc3ccc(O)cc3)NC(=O)[C@@H](C)NC(=O)[C@H](CC(C)C)NC(=O)[C@H](CCCCN)NC(=O)[C@H](Cc3ccc(-c4ccc(C(=O)O)cc4)cc3)NC(=O)CNC(=O)[C@@H](C)N(C)C(=O)[C@H](CC(=O)O)NC(=O)[C@H]([C@@H](C)c3c[nH]c4cccc(F)c34)NC(=O)[C@@H]3C[C@@H](N)CN3C(=O)CNC(=O)[C@H](Cc3ccc(C(=O)O)cc3)NC(=O)[C@H](Cc3c[nH]c4ccccc34)NC2=O)cc1` [Example 159] (cyclo([AEF](Ac)W[Phe(4-COOH)]G[Pro(4R-NH2)][Trp(βS-Me,4-F)]D[dNMeA]G[Bip(4'-COOH)]KL[dA][hTyr])): 0.118 nM; `CC(=O)NCCOc1ccc(C[C@@H]2NC(=O)[C@H](CCc3ccc(O)cc3)NC(=O)[C@@H](CCN)NC(=O)[C@H](CC(C)C)NC(=O)[C@H](CCCCN)NC(=O)[C@H](Cc3ccc(-c4ccc(C(=O)O)cc4)cc3)NC(=O)CNC(=O)[C@@H](C)N(C)C(=O)[C@H](CC(=O)O)NC(=O)[C@H]([C@@H](C)c3c[nH]c4cccc(F)c34)NC(=O)[C@@H]3C[C@@H](N)CN3C(=O)CNC(=O)[C@H](Cc3ccc(C(=O)O)cc3)NC(=O)[C@H](Cc3c[nH]c4ccccc34)NC2=O)cc1` [Example 160] (cyclo([AEF](Ac)W[Phe(4-COOH)]G[Pro(4R-NH2)][Trp(βS-Me,4-F)]D[dNMeA]G[Bip(4'-COOH)]KL[dDab][hTyr])): 0.522 nM. Still for that read-out and setting: next, `CC(=O)NCCOc1ccc(C[C@@H]2NC(=O)[C@H](CCc3ccc(O)cc3)NC(=O)[C@@H](CO)NC(=O)[C@H](CC(C)C)NC(=O)[C@H](CCCCN)NC(=O)[C@H](Cc3ccc(-c4ccc(C(=O)O)cc4)cc3)NC(=O)CNC(=O)[C@@H](C)N(C)C(=O)[C@H](CC(=O)O)NC(=O)[C@H]([C@@H](C)c3c[nH]c4cccc(F)c34)NC(=O)[C@@H]3C[C@@H](N)CN3C(=O)CNC(=O)[C@H](Cc3ccc(C(=O)O)cc3)NC(=O)[C@H](Cc3c[nH]c4ccccc34)NC2=O)cc1` [Example 161] (cyclo([AEF](Ac)W[Phe(4-COOH)]G[Pro(4R-NH2)][Trp(βS-Me,4-F)]D[dNMeA]G[Bip(4'-COOH)]KL[dS][hTyr])): 0.483 nM; `CC(=O)NCCOc1ccc(C[C@@H]2NC(=O)CNC(=O)[C@@H](C)NC(=O)[C@H](CCN3CCOCC3)NC(=O)[C@H](Cc3c[nH]c4ccccc34)NC(=O)[C@H](Cc3ccc(-c4ccc(C(=O)O)cc4)cc3)NC(=O)CNC(=O)[C@@H](C)N(C)C(=O)[C@H](CC(=O)O)NC(=O)[C@H]([C@@H](C)c3c[nH]c4cccc(F)c34)NC(=O)[C@@H]3C[C@@H](N)CN3C(=O)CNC(=O)[C@H](Cc3ccc(C(=O)O)cc3)NC(=O)[C@H](Cc3c[nH]c4ccccc34)NC2=O)cc1` [Example 162] (cyclo([AEF](Ac)W[Phe(4-COOH)]G[Pro(4R-NH2)][Trp(βS-Me,4-F)]D[dNMeA]G[Bip(4'-COOH)]W[X7][dA]G)): 0.749 nM. Same read-out and setting: in the case of `CC(=O)NCCOc1ccc(C[C@@H]2NC(=O)[C@H](CCc3ccccc3)NC(=O)[C@@H](C)NC(=O)[C@H](CCN)NC(=O)[C@H](Cc3c[nH]c4ccccc34)NC(=O)[C@H](Cc3ccc(-c4ccc(C(=O)O)cc4)cc3)NC(=O)CNC(=O)[C@@H](C)N(C)C(=O)[C@H](CC(=O)O)NC(=O)[C@H]([C@@H](C)c3c[nH]c4cccc(F)c34)NC(=O)[C@@H]3C[C@@H](N)CN3C(=O)CNC(=O)[C@H](Cc3ccc(C(=O)O)cc3)NC(=O)[C@H](Cc3c[nH]c4ccccc34)NC2=O)cc1` [Example 163] (cyclo([AEF](Ac)W[Phe(4-COOH)]G[Pro(4R-NH2)][Trp(βS-Me,4-F)]D[dNMeA]G[Bip(4'-COOH)]W[Dab][dA][hPhe])) it was 0.156 nM. As for `CC(=O)NCCOc1ccc(C[C@@H]2NC(=O)[C@H](Cc3ccc(OCCN)cc3)NC(=O)[C@@H](C)NC(=O)[C@H](CC(C)C)NC(=O)[C@H](Cc3c[nH]c4ccccc34)NC(=O)[C@H](Cc3ccc(-c4ccc(C(=O)O)cc4)cc3)NC(=O)CNC(=O)[C@@H](C)N(C)C(=O)[C@H](CC(=O)O)NC(=O)[C@H]([C@@H](C)c3c[nH]c4cccc(F)c34)NC(=O)[C@@H]3C[C@@H](N)CN3C(=O)CNC(=O)[C@H](Cc3ccc(C(=O)O)cc3)NC(=O)[C@H](Cc3c[nH]c4ccccc34)NC2=O)cc1` [Example 164] (cyclo([AEF][AEF](Ac)W[Phe(4-COOH)]G[Pro(4R-NH2)][Trp(βS-Me,4-F)]D[dNMeA]G[Bip(4'-COOH)]WL[dA])), the half-maximal inhibitory concentration (IC50) was 0.459 nM.

Values taken from patent US20230406885A1, “CYCLIC PEPTIDES FOR TRAPPING INTERLEUKIN-1 BETA” (MERCK SHARP & DOHME LLC, priority 2022, published 2023).
